Converted amounts (≈) assume the structure as drawn. One block for each compound: values may come before it.
How the values were obtained:
[1] = test system: A-431; assay: Antiproliferative activity against human A-431 cells assessed as reduction in cell viability incubated for 72 hrs by MTT assay; format: functional, cell-based; conditions: A-431, 72 h
[2] = Metabolic stability in rat plasma assessed as parent compound remaining at 100 nM measured after 60 mins by HPLC analysis; format: ADME, cell-free; conditions: 1 h, 0.1 µM
[3] = test system: HCT-8; assay: Antiproliferative activity against human HCT-8 cells assessed as reduction in cell viability incubated for 72 hrs by MTT assay; format: functional, cell-based
[4] = test system: MDA-MB-231; assay: Antiproliferative activity against human MDA-MB-231 cells assessed as reduction in cell viability incubated for 72 hrs by MTT assay; format: functional, cell-based; conditions: MDA-MB-231, 72 h
[5] = test system: H22; assay: Antiproliferative activity against mouse H22 cells assessed as reduction in cell viability incubated for 72 hrs by MTT assay; format: functional, cell-based; conditions: H22, 72 h
[6] = test system: L02; assay: Cytotoxicity against human L02 cells assessed as reduction in cell viability incubated for 72 hrs by MTT assay; format: cell-based; conditions: L02, 72 h
[7] = test system: HepG2; assay: cells; conditions: Homo sapiens, HepG2, 72 h
[8] = test system: K562; assay: cells; conditions: Homo sapiens, K562, 72 h
Description: (§1) Antiproliferative activity against human K562 cells assessed as reduction in cell viability incubated for 72 hrs by MTT assay

[9] = Aqueous solubility of the compound in phosphate buffer at pH 7.4 by HPLC-UV analysis; format: physicochemical
[10] = Aqueous solubility of the compound in aqueous HCl at pH 2 by HPLC-UV analysis; format: physicochemical
[11] = n-Octanol/water partition coefficient, logD of the compound incubated for 24 hrs at pH 7.4 by HPLC analysis; format: physicochemical
[12] = test system: Bel-7402; assay: Antiproliferative activity against ADR-resistant human Bel-7402 cells assessed as reduction in cell viability incubated for 72 hrs by MTT assay; format: functional, cell-based; conditions: Homo sapiens, Bel-7402, 72 h; read-out: IC50
[13] = Resistant index, ratio of IC50 for ADR-resistant human Bel-7402 cells to IC50 for human Bel-7402 cells; format: functional
[14] = test system: HCT-8; assay: Antiproliferative activity against taxol-resistant human HCT-8 cells assessed as reduction in cell viability incubated for 72 hrs by MTT assay; format: functional, cell-based
[15] = Resistant index, ratio of IC50 for taxol-resistant human HCT-8 cells to IC50 for human HCT-8 cells; format: functional
[16] = Resistant index, ratio of IC50 for VCR resistant human K562 cells to IC50 for human K562 cells; format: functional
[17] = Inhibition of pig brain tubulin polymerisation incubated for 30 mins and measured every 2 mins for 60 mins by spectrophotometric method; format: tissue-based, Sus scrofa
[18] = species on record: Sus scrofa; assay: Inhibition of [3H]colchicine binding to biotinylated pig brain tubulin at 1 uM incubated for 2 hrs in presence of GTP by competitive scintillation proximity assay; format: tissue-based
[19] = species on record: Sus scrofa; assay: Inhibition of [3H]colchicine binding to biotinylated pig brain tubulin at 5 uM incubated for 2 hrs in presence of GTP by competitive scintillation proximity assay; format: tissue-based
[20] = test system: H22; assay: Antitumor activity against […] xenografted in ICR mouse assessed as reduction of tumor weight at 20 mg/kg/day, iv for 21 days; format: functional; conditions: 504 h, time 21 day
[21] = test system: K562/VCR; assay: Antiproliferative activity against VCR resistant human K562/VCR cells assessed as reduction in cell viability incubated for 72 hrs by MTT assay; format: functional, cell-based; conditions: k562/vcr
[22] = test system: K562
Description: as §1

[23] = Homo sapiens, HCT-8, 72 h, read-out: IC50

IC50 [1]: 57 nM
Compound: COc1ccc(N2CCCCC2)c(C(=O)NCc2ccc(OC)c(O)c2)c1

IC50 [1]: 306 nM
Compound: COc1ccc(CNc2ccc(N3CCOCC3)c(C(=O)NCc3ccc(OC)c(O)c3)c2)cc1

Stabilty [2]: Unstable
Compound: CCOC(=O)[C@H](CCc1ccccc1)N[C@@H](C)C(=O)N1CCC[C@H]1C(=O)O [ENALAPRIL]

IC50 [1]: 127 nM
Compound: COc1ccc(CNC(=O)c2cc([N+](=O)[O-])ccc2N2CCOCC2)cc1

IC50 [1]: 37 nM | IC50 [3, 23]: 56 nM | IC50 [4]: 57 nM | IC50 [7]: 62 nM | IC50 [8]: 40 nM
Compound: COc1ccc(CNC(=O)c2cc(C(F)(F)F)ccc2N2CCOCC2)cc1O
IC50 [5]: 55 nM | IC50 [6]: 103 nM

IC50 [1]: 977 nM
Compound: COc1ccc(CNC(=O)c2cnccc2N2CCOCC2)cc1O

IC50 [1]: 60 nM | IC50 [3, 23]: 60 nM | IC50 [4]: 62 nM | IC50 [7]: 58 nM | IC50 [8]: 49 nM
Compound: COc1ccc(CNC(=O)c2cc([N+](=O)[O-])ccc2N2CCSCC2)cc1O
IC50 [5]: 55 nM | IC50 [6]: 113 nM

IC50 [1]: > 1000 nM
Compound: COc1ccc(CNC(=O)c2cc([N+](=O)[O-])ccc2N2CCNCC2)cc1O

IC50 [1]: 315 nM
Compound: COc1ccc(CNC(=O)c2cc(NCc3ccco3)ccc2N2CCOCC2)cc1O

IC50 [1]: 25 nM | IC50 [3, 23]: 29 nM | IC50 [4]: 86 nM | solubility [9]: < 1 µg/mL | solubility [10]: 1110 µg/mL (≈ 3090 µM) | logD at 24 h [11]: 2.97 | IC50 [7]: 26 nM | IC50 [8]: 11 nM
Compound: COc1ccc(CNC(=O)c2cc(F)ccc2N2CCCCC2)cc1O
IC50 [5]: 32 nM | IC50 [6]: 88 nM

IC50 [1]: 220 nM
Compound: COc1ccc(CNC(=O)c2cc(NC(C)=O)ccc2N2CCOCC2)cc1O

IC50 [1]: 105 nM
Compound: COc1ccc(CNC(=O)c2cc(N(C)C)ccc2N2CCOCC2)cc1O

IC50 [1]: 372 nM
Compound: COc1ccc(CNC(=O)c2cc([N+](=O)[O-])ccc2N2CCCC2)cc1O

IC50 [1]: > 1000 nM
Compound: COc1ccc(CNC(=O)c2cc([N+](=O)[O-])ccc2N2CCOCC2)cc1OC

IC50 [1]: 478 nM
Compound: COc1ccc(CNC(=O)c2cc(NC(=O)c3ccco3)ccc2N2CCOCC2)cc1O

IC50 [1]: > 1000 nM
Compound: O=C(OCc1cccc2[nH]ccc12)c1cc([N+](=O)[O-])ccc1N1CCOCC1

IC50 [1]: 388 nM
Compound: COc1ccc(CNC(=O)c2cc(-c3ccncc3)ccc2N2CCOCC2)cc1O

Compound: COc1ccc(/C=C\c2cc(OC)c(OC)c(OC)c2)cc1O [COMBRETASTATIN A4]
IC50 [5]: 15 nM | IC50 [12]: 58 nM | Ratio IC50 [13]: 5.3 | IC50 [14, 23]: 87 nM | Ratio IC50 [15]: 7.9 | Ratio IC50 [16]: 8.1 | solubility [9]: 1 µg/mL (≈ 3.16 µM) | solubility [10]: < 1 µg/mL | logD at 24 h [11]: 2.68 | IC50 [17]: 2640 nM | inhibition [18]: 80.2% | inhibition [19]: 90.3% | inhibition in vivo at 20 mg/kg/day [20]: 54.9% | IC50 [7]: 10 nM

IC50 [1]: > 1000 nM
Compound: O=C(NCc1ccc(C(F)(F)F)cc1)c1cc([N+](=O)[O-])ccc1N1CCOCC1

IC50 [1]: 241 nM
Compound: COc1ccc(C(C)NC(=O)c2cc([N+](=O)[O-])ccc2N2CCOCC2)cc1 (configuration not stated)

IC50 [1]: > 1000 nM
Compound: COc1ccc(CNC(=O)c2cc([N+](=O)[O-])ccc2N(C)C)cc1O

IC50 [1]: 25 nM | IC50 [3, 23]: 25 nM | IC50 [4]: 30 nM | IC50 [7]: 29 nM | IC50 [8]: 32 nM
Compound: COc1ccc(CNC(=O)c2cc(Cl)ccc2N2CCOCC2)cc1O
IC50 [5]: 31 nM | IC50 [6]: 95 nM

IC50 [1]: 92 nM
Compound: COc1ccc(CNC(=O)c2cc(Br)ccc2N2CCCCC2)cc1O

IC50 [1]: > 1000 nM
Compound: O=C(NCc1ccc(O)cc1)c1cc([N+](=O)[O-])ccc1N1CCOCC1

IC50 ([3]; hct-8): Not Active | IC50 ([14]; hct-8): Not Active | IC50 [21]: Not Active | IC50 [22]: Not Active
Compound: COc1cccc2c1C(=O)c1c(O)c3c(c(O)c1C2=O)C[C@@](O)(C(=O)CO)C[C@@H]3O[C@H]1C[C@H](N)[C@H](O)[C@H](C)O1.Cl [DOXORUBICIN HYDROCHLORIDE]
Ratio IC50 [13]: 6.3

IC50 [1]: > 1000 nM
Compound: O=C(NCc1ccc(Cl)cc1)c1cc([N+](=O)[O-])ccc1N1CCOCC1

IC50 [1]: 118 nM
Compound: COc1ccc(CNC(=O)c2ccncc2N2CCOCC2)cc1O

IC50 [1]: > 1000 nM
Compound: COc1ccc(CNC(=O)c2cc([N+](=O)[O-])ccc2N2CCOCC2)cn1

From ChEMBL document CHEMBL4813973, “Discovery of novel N-benzylbenzamide derivatives as tubulin polymerization inhibitors with potent antitumor activities” (Eur J Med Chem, 2021)
